From US4639459A, “Use of trifluoromethyl compounds” (priority 1985, dated 1987)

How the values were obtained:
[1] = Pharmacokinetic studies comparing relative distribution in brain and plasma; conditions: rodents
[2] = human, in vivo; cited from earlier work

O=C(O)/C=C/c1cccc(/C(=C/CN2CCCC2)c2ccc(C(F)(F)F)cc2)n1 [Compound of Formula (I), (E)-3-{6-[3-Pyrrolidino-1(4-Trifluoromethylphenyl)prop-1E-enyl]-2-pyridyl}acrylic acid]
penetration of the brain [1]: does not readily penetrate the brains of rodents

Cc1ccc(/C(=C\CN2CCCC2)c2ccccn2)cc1 [Triprolidine, (E)-1-(4-methylphenyl)-1-(2-pyridyl)-3-pyrrolidinoprop-1-ene]
sedation and drowsiness [2]: produces sedation and drowsiness in varying degrees in most patients
